From ChEMBL document CHEMBL1126380, “New aza(nor)adamantanes are agonists at the newly identified serotonin 5-HT4 receptor and antagonists at the 5-HT3 receptor” (Bioorg Med Chem Lett, 1992)

Columns and labels:
[1] = molecular target: T1, 5-hydroxytryptamine receptor 3A (Rattus norvegicus, UniProt P35563); experiment: Compound was evaluated […] for the antagonistic activity towards 5-hydroxytryptamine 3 receptor; assay type: functional
T1 sequence (P35563 whole entry): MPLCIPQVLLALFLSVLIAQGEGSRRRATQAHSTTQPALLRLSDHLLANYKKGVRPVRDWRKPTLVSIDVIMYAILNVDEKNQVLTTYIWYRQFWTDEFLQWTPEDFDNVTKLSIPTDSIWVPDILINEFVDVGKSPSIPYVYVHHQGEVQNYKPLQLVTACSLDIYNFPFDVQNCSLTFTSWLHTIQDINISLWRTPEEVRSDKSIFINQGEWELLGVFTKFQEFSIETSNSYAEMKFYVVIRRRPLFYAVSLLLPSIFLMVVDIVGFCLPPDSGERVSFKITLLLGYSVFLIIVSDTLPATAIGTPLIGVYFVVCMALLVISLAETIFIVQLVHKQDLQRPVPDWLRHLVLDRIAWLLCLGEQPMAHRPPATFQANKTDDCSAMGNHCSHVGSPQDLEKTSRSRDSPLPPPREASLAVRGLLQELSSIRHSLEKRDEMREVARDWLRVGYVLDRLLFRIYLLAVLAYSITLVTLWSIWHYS

[2] = molecular target: 5-hydroxytryptamine receptor 4 (Rattus norvegicus, UniProt Q62758); experiment: Compound was evaluated for the agonistic activity towards 5-hydroxytryptamine 4 receptor using the rat tunica muscularis mucosae (TMM) esophagus strip assay; assay type: functional, tissue-based, Muscularis mucosa
[3] = tested on: Rattus norvegicus; experiment: Minimum effective dose(ip) required for inhibition of serotonin-induced bradycardic response in the Bezold-Jarisch reflex functional model; conditions: for minimal effective dose: Rattus norvegicus, ip, read-out: MED

5-hydroxytryptamine receptor 4, sequence (Q62758 whole entry): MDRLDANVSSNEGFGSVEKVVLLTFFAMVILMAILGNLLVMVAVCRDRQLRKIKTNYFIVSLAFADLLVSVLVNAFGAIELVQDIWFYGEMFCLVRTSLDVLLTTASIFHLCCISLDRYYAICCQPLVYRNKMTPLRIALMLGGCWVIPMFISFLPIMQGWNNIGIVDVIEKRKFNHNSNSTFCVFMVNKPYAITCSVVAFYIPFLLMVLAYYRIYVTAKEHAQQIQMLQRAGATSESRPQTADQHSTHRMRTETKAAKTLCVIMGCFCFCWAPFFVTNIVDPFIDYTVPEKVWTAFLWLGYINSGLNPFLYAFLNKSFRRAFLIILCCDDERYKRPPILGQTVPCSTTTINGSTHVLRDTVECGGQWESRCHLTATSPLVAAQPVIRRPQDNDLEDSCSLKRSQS

Row | Structure (SMILES) | Ki [1] [µM] | EC50 [2] [µM] | minimal effective dose [3] [mg/kg] | MED [3] [mg/kg]
1 | COc1cc(N)c(Cl)cc1C(=O)N[C@H]1C2CC3CN(C2)CC31 (some centres undefined) | 0.0039 | 3.87 | 0.01 | –
2 | COc1cc(N)c(Cl)cc1C(=O)N[C@@H]1C2CC3CN(C2)CC31 (some centres undefined) | 0.0012 | 0.0513 | 0.01 | –
3 | COc1cc(N)c(Cl)cc1C(=O)N[C@@H]1CN2CCC1CC2 | 0.00023 | 0.203 | 0.3 | –
4 | COc1cc(N)c(Cl)cc1C(=O)NC1C2CC3CC1CN(C3)C2 (stereo in doubt) | 0.009 | 0.262 | – | 0.03
5 | COc1cc(N)c(Cl)cc1C(=O)NC1C2CC3CC1CN(C3)C2 (stereo in doubt; 1A) | 0.336 | 0.538 | – | 10
6 | COc1cc(N)c(Cl)cc1C(=O)N[C@@H]1CCN(CCCOc2ccc(F)cc2)C[C@@H]1OC [CISAPRIDE] | – | – | 5 | –
7 | COc1cc(N)c(Cl)cc1C(=O)NC1CCN2CCCC1C2 (centres undefined) [RENZAPRIDE] | 0.0056 | 0.098 | 0.25 | –
